According to patent US10292981B2, “Oxazoline and isoxazoline derivatives as CRAC modulators” (LUPIN LIMITED, priority 2010, dated 2019):

Assays:
Type in all cases: cell-based
[1] = system: IL-2 secretion, Jurkat T cells; assay: Inhibition of IL-2 secretion (PHA-stimulated Jurkat T cells, ELISA); conditions: Homo sapiens; Jurkat T cells stimulated with PHA, 20 to 24 hours
Protocol: The CRAC channel modulatory activity of the compounds were thus evaluated by measuring the secretion of IL-2 by antigen stimulated T-cells in vitro. Alternatively, such activity can also be evaluated by assay methods known to one skilled in the art.
Inhibition of IL-2 secretion: Jurkat T cells were seeded at a density of 0.5 to 1 million cells per well in RPMI medium. Test compounds from this invention were added to the cells at different concentrations. This was followed by the addition of PHA, a T cell mitogen after 10 minutes.
The cells were then incubated for 20 to 24 hours in a CO2 incubator at 37° C. After incubation with the compounds, cells were centrifuged, collected the supernatant and processed for ELISA to quantitate the amount of IL-2 secreted. A commercial ELISA kit (R&D Systems, Inc. Minneapolis, Minn., USA) was used to estimate the IL-2 concentrations. Amount of IL-2 secreted by cells stimulated with PHA was considered as a 100% maximal signal and the decrease in amount of IL-2 secreted by cells treated with the test compounds was expressed as percent inhibition of the maximal signal. The dose response data was analyzed using 4-parametric sigmoidal dose response (variable slope) curve-fit.

[2] = system: SOCE, Jurkat E6.1 cells; assay: SOCE inhibition (thapsigargin/calcium influx, FLIPR); conditions: Homo sapiens, thapsigargin, calcium chloride
Protocol: SOCE inhibition: Jurkat E6.1 cells were seeded at a density of 1-2×10^5 cells per well in calcium-4 dye prepared in calcium free HBSS (Sigma, USA). Test compounds from this invention were added to the cells at different concentrations. This was followed by the addition of thapsigargin (TG), a SERCA inhibitor, to empty the stores of calcium. Calcium chloride was added to the cells after 10-30 min to induce calcium influx and the fluorescence was measured for 10 min using the FLIPR-Tetra detection system. Fluorescence was also measured using a plate reader at 485 nm excitation and 520 nm emission (Synergy2, Biotek, USA) after 30-90 minutes of calcium addition. Fluorescence observed in cells treated with Thapsigargin and calcium chloride solution was considered 100% maximal signal and the reduced fluorescent signal observed in the presence of test compounds was expressed as percent inhibition of the maximal signal. The dose response data was analyzed using 4-parametric sigmoidal dose response (variable slope) curve-fit.

[3] = system: NFAT-Luc reporter gene, HEK 293 cells; assay: NFAT transcriptional activity (NFAT-Luc reporter); conditions: Homo sapiens, HEK293, thapsigargin
Protocol: NFAT Transcriptional Activity: HEK 293 cells were stably transfected with a NFAT-Luc reporter gene. 30,000-80,000 cells were seeded per well. Test compounds from this invention were added to the cells at different concentrations. Thapsigargin (TG) was added after 10 mins and the cells were incubated for 4-8 h. NFAT transcriptional activity was measured using BrightGlo reagent (Promega USA). Luminescence observed in cells treated with thapsigargin was considered 100% maximal signal and the reduced fluorescent signal observed in the presence of test compounds was expressed as percent inhibition of the maximal signal. The data was analyzed using 4-parametric sigmoidal dose response (variable slope) curve-fit.

Compound	IC50 [1] [nM]	IC50 [2] [nM]	IC50 [3] [nM]
Cc1c(-c2nn(C)c(=O)o2)cccc1-c1ccc(C(=O)Nc2c(F)cccc2F)s1 [Example 176, N-(2,6-Difluorophenyl)-5-(2-methyl-3-(4-methyl-5-oxo-4,5-dihydro-1,3,4-oxadiazol-2-yl)phenyl)thiophene-2-carboxamide]	< 100	< 1000	< 500
COc1ccc(-c2nn(C)c(=O)o2)cc1-c1ccc(NC(=O)c2c(F)cccc2Cl)cc1 [Example 41, 2-Chloro-6-fluoro-N-(2′-methoxy-5′-(4-methyl-5-oxo-4,5-dihydro-1,3,4-oxadiazol-2-yl)[1,1′-biphenyl]-4-yl)benzamide]	–	< 1000	–
Cc1ccc(C2=NOC(C)(C)C2=O)cc1-c1ccc(NC(=O)c2c(F)cccc2F)cc1 [Example 3]	< 100	–	–
COc1ccc(C2=NOC(C)(C)C2=O)cc1-c1ccc(NC(=O)c2c(F)cccc2F)cn1 [Example 18, N-(6-(5-(5,5-dimethyl-4-oxo-4,5-dihydroisoxazol-3-yl)-2-methoxyphenyl)pyridin-3-yl)-2,6-difluorobenzamide]	100 to 1000	–	–
Cc1ccc(C2=NOC(C)(C)C2=O)cc1-c1cnc(NC(=O)c2cccnc2C)cn1 [Example 113, N-(5-(5-(5,5-dimethyl-4-oxo-4,5-dihydroisoxazol-3-yl)-2-methylphenyl)pyrazin-2-yl)-2-methylnicotinamide]	100 to 1000	–	–
C=CCOc1ccc(C2=NOC(C)(C)C2=O)cc1-c1ccc(NC(=O)c2c(F)cccc2F)cc1 [Example 132, N-(2′-(allyloxy)-5′-(5,5-dimethyl-4-oxo-4,5-dihydroisoxazol-3-yl)-[1,1′-biphenyl]-4-yl)-2,6-difluorobenzamide]	100 to 1000	–	–
CNc1ccc(C2=NOC(C)(C)C2=O)cc1-c1ccc(NC(=O)c2c(F)cccc2F)cc1 [Example 135, N-(5′-(5,5-Dimethyl-4-oxo-4,5-dihydroisoxazol-3-yl)-2′-(methylamino)-[1,1′-biphenyl]-4-yl)-2,6-difluorobenzamide]	< 100	< 1000	< 500
COc1ccc(C2=NOC(C)(C)C2=O)cc1-c1ccc(C(=O)Nc2c(F)cccc2F)s1 [Example 160, N-(2,6-Difluorophenyl)-5-(5-(5,5-dimethyl-4-oxo-4,5-dihydroisoxazol-3-yl)-2-methoxy-phenyl)thiophene-2-carboxamide]	< 100	< 1000	–
Cc1ccc(C2=NOC(CO)(CCO)C2)cc1-c1ccc(NC(=O)c2c(F)cccc2F)cc1 (stereo not drawn) [Example 145, 2,6-Difluoro-N-(5′-(5-(2-hydroxyethyl)-5-(hydroxymethyl)-4,5-dihydroisoxazol-3-yl)-2′-methyl-[1,1′-biphenyl]-4-yl)benzamide]	> 1000	–	–
Cc1ccc(C2=NOC(C)(C)C2)cc1-c1cnc(NC(=O)c2c(F)cccc2F)cn1 [Example 53]	100 to 1000	–	–
Cc1c(C2=NOC(C)(C)C2=O)cccc1-c1ccc(NC(=O)c2c(F)cccc2F)cc1 [Example 29, N-(3′-(5,5-Dimethyl-4-oxo-4,5-dihydroisoxazol-3-yl)-2′-methyl-[1,1′-biphenyl]-4-yl)-2,6-difluorobenzamide]	< 100	–	< 500
Cc1nnsc1C(=O)Nc1ccc(-c2cccc(-c3nn(C)c(=O)o3)c2C)cc1 [Example 50, 4-Methyl-N-(2′-methyl-3′-(4-methyl-5-oxo-4,5-dihydro-1,3,4-oxadiazol-2-yl)-[1,1′-biphenyl]-4-yl)-1,2,3-thiadiazole-5-carboxamide]	–	–	< 500
COc1ccc(C2=NOC(C)(C)C2=O)cc1-c1ccc(NC(=O)c2snnc2C)cc1 [Example 16, N-(5′-(5,5-Dimethyl-4-oxo-4,5-dihydroisoxazol-3-yl)-2′-methoxy-[1,1′-biphenyl]-4-yl)-4-methyl-1,2,3-thiadiazole-5-carboxamide]	< 100	–	–
COc1ccc(C2=NOC(C)(C)C2=O)cc1-c1ccc(NC(=O)c2c(F)cccc2F)cc1 [Example 15, N-(5′-(5,5-dimethyl-4-oxo-4,5-dihydroisoxazol-3-yl)-2′-methoxy-[1,1′-biphenyl]-4-yl)-2,6-difluorobenzamide]	–	< 1000	–
Cc1ccc(C2=NOC(C)(C)C2=O)cc1-c1cnc(NC(=O)c2cc(F)ccc2F)cn1 [Example 67, N-(5-(5-(5,5-Dimethyl-4-oxo-4,5-dihydroisoxazol-3-yl)-2-methylphenyl)pyrazine-2-yl)-2,5-difluorobenzamide]	100 to 1000	–	–
